Test results: patent publication US6699676B1, “Uses of ouabain and ouabain-like molecules in apoptosis related pathologies” (Corporation du Centre de Recherche du Centre, Hospitalier …, priority 1999, dated 2004)

Tests used:
VSMC-E1A = assay: Chromatin cleavage assay in VSMC-E1A; type: cell-based, rat; conditions: VSMC-E1A; for Increment of chromatin fragments triggered by serum withdrawal(%): 1 mM, pretreated 2 hours then 3 hours with or without calf serum, control increment taken as 100%
Method: FIG. 2. Effect of ouabain on chromatin cleavage in VSMC-E1A. (A) Kinetics of the accumulation of chromatin fragments in control (curves 1, 3) and ouabain-treated (curves 2, 4) VSMC-E1A in the presence of 10% calf serum (CS, curves 1, 2) or in CS-free medium (curves 3, 4). Mean values ±S.E. obtained in experiments performed in quadruplicate are given. (B) Content of chromatin fragments in VSMC-E1A subjected to 6 hr of incubation in serum-supplied medium with or without 1 mM ouabain, 0.25 μM staurosporine, 1 μM okadaic acid and 350 mM mannitol. Mean values±S.E. obtained in 3 experiments performed in quadruplicate are given. ★, ★★ p<0.05 and 0.001 compared to ouabain-untreated cells. In both experiments, ouabain was added 1 hour before triggering of apoptosis.
Cells were incubated in K^+-containing medium consisting of 91 mM NaCl, 5 mM KCl, 0.9 mM NaH2PO4, 44 mM NaHCO3, 1.8 mM CaCl2, 0.8 mM MgCl2, 33 mM HEPES and 5 mM D-glucose (pH 7.4) (lines 1 and 2) or in K^+-depleted medium (equimolar substitution of KCl by NaCl, line 3) with or without 10% calf serum (CS) and 1 mM ouabain as indicated. In experiments with VSMC-MYC and VSMC-E1A, cells were preincubated for 1 hr with ouabain or with K^+-depleted medium in the presence of CS and then subjected to treatment with serum-free media. After 24 hours (VSMC) or 6 hours (VSMC-MYC and VSMC-E1A), the content of chromatin fragments was measured as described in Experimental Procedures. Mean values±S.E. obtained in 3 experiments performed in quadruplicate (VSMC) or triplicate (VSMC-MYC, VSMC-E1A) are given. ★, ★★ p<0.05 and 0.001 compared to the controls.
To estimate chromatin cleavage, cells were incubated for 1 hr in the presence of 10% calf serum (CS) in the control solution (DMEM, [Na^+]=137 mM; [K^+]=5 mM—line 1) or under equimolar substitution of NaCl by KCl ([Na^+]=14 mM; [K^+]=128 mM—line 2) with or without 1 mM ouabain and then for an additional 6 hours in the same media with or without CS. Intracellular Na^+ and K^+ content was measured as steady-state distribution of isotopes after 24 hours preincubation of cells in control Na^+-enriched solution containing 0.5 μCi/ml ^86Rb or 2 μCilml ^22Na, and additional 6 hours incubation in Na^+—(line 1) or K^+—(line 2) enriched medium, containing 10% CS and isotopes with the same specific activity with or without 1 mM ouabain. For more details see Experimental Procedures. Mean values±S.E. obtained in 3 experiments performed in triplicate (ion content) or quadruplicate (chromatin cleavage) are given. ★p<0.001 compared to ouabain-untreated cells.
VSMC-E1A cells were pretreated with compounds indicated in the left column during 2 hours in DMEM containing 10% calf serum and then additional 3 hours in the absence or presence of calf serum. The increment of the content of chromatin fragments triggered by serum withdrawal in control cells was taken as 100%. Means+S.E. from experiments performed with quadruplicate are given. ★p<0.001 as compared to control.
(§1) Cells. VSMC were obtained by explant methods from aortas of 10- to 13-week-old male rats as described previously (17), cultured in DMEM with 10% calf serum, 100 U/ml penicillin, 100 µg/ml streptomycin and used between 10 to 16 passages. Cells transfected with c-myc (VSMC-MYC) and E1A-adenovirus (VSMC-E1A) were obtained in accordance with a previously-described protocol (18,19) and were cultured in the same medium with the addition of 500 µg/ml genticin. Jurkat cells were obtained from the American Type Culture Collection and cultured in RPMI 1640 medium supplied with 10% calf serum, antibiotics, sodium pyruvate, glutamate and β-mercaptoethanol.
Chromatin cleavage assay. Chromatin cleavage in VSMC was estimated by a technique described previously in detail (10). Briefly, VSMC grown in 24-well dishes were labeled for 24 hours in serum-supplied DMEM with [^3H]-thymidine (1 μCi/ml), washed with 2×2 ml of DMEM and incubated in serum-supplied DMEM. […]

caspase-3 [1] = assay: Caspase-3 activity in treated Jurkat cells; type: cell-based, human; conditions: 3 hours, Fas ligand 100 ng/ml, staurosporine 0.25 μM, mannitol 350 mM
Method: (§2) FIG. 5. Effect of ouabain on caspase-3 activity in VSMC-E1A (A) and Jurkat cells (B). VSMC-E1A and Jurkat cells were pretreated with 1 mM ouabain for 1 and 2 hours, respectively, and the additions indicated below the bars were delivered in media with 10% calf serum and with the baseline (137/5) or inverse (14/128) [Na^+]o/[K^+]o ratio for 6 (VSMC-E1A) or 3 hours (Jurkat cells). In experiments with VSMC-E1A, calf serum (CS) was omitted where indicated (−). Abbreviations: staur.—staurosporine (0.25 μM), ok.ac.—okadaic acid (1 μM), mann.—mannitol (350 mM); Fas-L—Fas ligand (100 ng/ml). Mean values±S.E. obtained in experiments performed in quadruplicate (A) or triplicate (B) are given. ★p<0.001 compared to ouabain-untreated cells.
(§3) Caspase activity. VSMC-E1A seeded in 20 cm^2 flasks and treated as indicated in FIG. 5 were scratched, transferred to centrifuge tubes, washed twice with PBS and lysed in 0.5 ml of buffer A contaming 50 mM tris-HCl (pH 7.4), 5 mM MgCl2, 1 mM EGTA and 0.1% CHAPS. Then, 50-100 μl of cell lysate was mixed with 600 μl of buffer A containing 1 mM dithiothreitol, 40 μM YVAD-AMC or DEVD-AMC with or without 1 μM of caspase-1 and capspase-3 inhibitors (Ac-YVAD-CHO and Ac-DEVD-CHO, respectively), incubated for 2 hours at 37° C. and diluted 15-fold with 80 mM glycine-NaOH buffer (pH 10). Fluorescence of the samples was measured at ex=365 run and em=465 run and calibrated with AMC in the range of 10 to 100 nM. To measure caspase activity in control and ouabain-treated Jurkat cells, 5 ml of suspension containing ˜2×10^7 cells was transferred onto ice and sedimented. The pellet of cells was washed and treated with 0.3 ml of medium A in the same way as VSMC. Protein content was estimated by Bradford methods.

Jurkat cells = assay: Chromatin cleavage assay in Jurkat cells; type: cell-based, human; conditions: for Chromatin fragments (%): Jurkat cells without ouabain, +Fas-L 100 ng/ml, 7 hours
Method: FIG. 4. Effect of ouabain on chromatin cleavage in Jurkat cells. (A) Kinetics of accumulation of chromatin fragments in control (curves 1, 3) and ouabain-treated (curves 2, 4) cells in the absence (curves 1, 2) or presence (curves 3, 4) of 100 ng/ml of anti-human Fas (mouse monoclonal IgM, Upstate Biotechnology, Lake Placid, N.Y.); (B) Content of chromatin fragments in Jurkat cells subjected to 3 hours of incubation with or without 1 mM ouabain, 0.25 μM staurosporine and 350 mM mannitol. In both experiments, ouabain was added 2 hours before triggering of apoptosis. Mean values±S.E. obtained in experiments performed in triplicate are given.
To estimate chromatin cleavage, cells were incubated for 2 hours in the presence of 10% calf serum in the control solution (DMEM, [Na^+]=137 mM; [K^+]=5 mM—line 1) or under equimolar substitution of NaCl with KCl ([Na^+]=14 mM; [K^+]=128 mM—line 2) with or without 1 mM ouabain and then for an additional 7 hours at the same media with or without 100 ng/ml Fas ligand (Fas-L). Intracellular Na^+ and K^+ content was measured as steady-state distribution of isotopes after 24 hours preincubation of cells in control Na^+-enriched solution containing 0.5 μCi/ml ^86Rb or 2 μCi/ml ^22Na, and an additional 6 hours incubation in Na^+—(line 1) or K^+—(line 2) enriched medium containing 10% calf serum, isotopes with the same specific activity with or without 1 mM ouabain. For more details see Experimental Procedures. Mean values±S.E. obtained in experiments performed in triplicate are given. ★, #p<0.01 and 0.001 compared to ouabain-untreated cells.
as §1
Chromatin cleavage assay. Chromatin cleavage in VSMC was estimated by a technique described previously in detail (10). Briefly, VSMC grown in 24-well dishes were labeled for 24 hours in serum-supplied DMEM with [^3H]-thymidine (1 μCi/ml), washed with 2×2 ml of DMEM and incubated in serum-supplied DMEM. In 48 hr, the cells were pretreated with ouabain or K^+-depleted medium as indicated in FIG. 2 and Table 3, washed twice with serum-containing medium and incubated with 0.5 ml of medium with or without ouabain and containing different inducers of apoptosis. To measure the content of chromatin fragments, the cells were transferred on ice and 1 ml of ice-cold lysed buffer (10 mM EDTA, 10 mM tris-HCl, 0.5% triton X100 (pH 8.0)) was added. After 15 min, the cell lysate was transferred to Ependorf tubes, sedimented (12,000 rpm, 10 mm), and 1 ml of supernatant was transferred for the measurement of radioactivity (A1t). The remaining radioactivity from pellets and wells was extracted with 0.5 ml of 1% SDS/4 mM EDTA mixture, combined and counted (A2). Chromatin cleavage was quantified as the content of chromatin fragments normalized by total content of [^3H]-labeled DNA in accordance with the equation [1.5×(A1t−A1o)/(A2+A1t−1.5A1o)]×100% where A1o is the value of A1t before induction of apoptosis. To measure chromatin fragmentation in [^3H]-thymidine-labeled Jurkat cells, they were resuspended at a density of 10^6 cells/ml in medium containing 10% calf serum and the additions indicated in FIG. 4 and Table 4. At the time intervals shown in FIG. 4, 100 μl of cell suspension was mixed with 100 μl of PBS contairung 0.5% triton X100, and the content of chromatin fragments was measured as described previously in detail (20).

caspase-3 [2] = type: biochemical, rat; conditions: lysates of VSMC-E1A after 6 hours serum withdrawal, 100 mM added, data not shown
Method: (§4) To examine this hypothesis, we measured the activity of caspases in lysates of VSMC-E1A subjected to 6 hours serum withdrawal has been measured.
as §3

caspase-1 = molecular target: T1, caspase-1 (Rattus norvegicus, UniProt P43527); type: biochemical; conditions: lysates of VSMC-E1A after 6 hours serum withdrawal, 100 mM added, data not shown
T1 construct: we measured the activity of caspases in lysates of VSMC-E1A subjected to 6 hours serum withdrawal; endogenous in cells; host or cells: VSMC-E1A (rat aortic vascular smooth muscle cells transfected with E1A adenoviral protein), cell lysate
T1 sequence (P43527 119-402): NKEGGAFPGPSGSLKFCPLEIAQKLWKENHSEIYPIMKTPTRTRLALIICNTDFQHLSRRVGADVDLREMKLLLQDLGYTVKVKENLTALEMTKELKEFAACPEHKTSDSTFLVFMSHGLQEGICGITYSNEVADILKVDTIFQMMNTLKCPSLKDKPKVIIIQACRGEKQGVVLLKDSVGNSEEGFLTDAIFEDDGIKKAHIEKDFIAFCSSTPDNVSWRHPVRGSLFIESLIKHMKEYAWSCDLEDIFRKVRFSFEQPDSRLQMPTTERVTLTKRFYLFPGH
Method: as §4, §3

caspase-3 [3] = assay: Caspase-3 activity in treated VSMC-E1A; type: cell-based, rat; conditions: 6 hours, staurosporine 0.25 μM, okadaic acid 1 μM
Method: as §2, §3

Compound: C[C@H]1O[C@@H](O[C@H]2[C@@H](O)C[C@H](O[C@H]3[C@@H](O)C[C@H](O[C@H]4CC[C@@]5(C)[C@H](CC[C@@H]6[C@@H]5C[C@@H](O)[C@]5(C)[C@@H](C7=CC(=O)OC7)CC[C@]65O)C4)O[C@@H]3C)O[C@@H]2C)C[C@H](O)[C@@H]1O [Digoxin, 12β-hydroxy-digitoxin]
- Increment of chromatin fragments triggered by serum withdrawal(%) (VSMC-E1A): 18 ± 4 %

Compound: Fas ligand
- increase of caspase-3 activity (caspase-3 [1]): ~30 fold
- Chromatin fragments (%) (Jurkat cells; medium [Na+]o=14, [K+]o=128 mM): 20.0±2.2%
- Chromatin fragments (%) (Jurkat cells; medium [Na+]o=14, [K+]o=128 mM, listed as Fas-L): 20.2%
- Chromatin fragments (%) (Jurkat cells; medium [Na+]o=137, [K+]o=5 mM): 28.5±3.3%
- Chromatin fragments (%) (Jurkat cells; medium [Na+]o=137, [K+]o=5 mM, listed as Fas-L): 28.5%
- increase of the content of chromatin fragments (Jurkat cells; Jurkat cells, 1.5 hour incubation with Fas ligand 100 ng/ml): 10 fold
- increment of the content of chromatin fragments triggered by Fas ligand (Jurkat cells; control Jurkat cells, 7-hr incubation): 23.6±3.9%

Compound: C[C@H]1O[C@@H](O[C@H]2[C@@H](O)C[C@H](O[C@H]3[C@@H](O)C[C@H](O[C@H]4CC[C@@]5(C)[C@H](CC[C@@H]6[C@@H]5CC[C@]5(C)[C@@H](C7=CC(=O)OC7)CC[C@]65O)C4)O[C@@H]3C)O[C@@H]2C)C[C@H](O)[C@@H]1O [Digitoxin, 5β,20[22]-cardenolide-3β,14-diol-3[O-2,6-dideoxy-β-D-ribohexopyranosyl-(1->4)-2,3-dideoxy-β-D-ribohexo-pyranosyl]oxy]
- Increment of chromatin fragments triggered by serum withdrawal(%) (VSMC-E1A): 24 ± 6 %

Compound: [Cl-].[Na+] [NaCl]
- decrease of caspase-3 activity (caspase-3 [2]): the same level of inhibition
- decrease of caspase-1 activity (caspase-1): the same level of inhibition

Compound: [Cl-].[K+] [KCl]
- decrease of caspase-3 activity (caspase-3 [2]): 10-20%
- decrease of caspase-1 activity (caspase-1): 10-20%

Compound: C=C1[C@@H](O)[C@@H]2O[C@]3(CC[C@H](/C=C/[C@@H](C)[C@@H]4CC(C)=C[C@@]5(O[C@H](C[C@@](C)(O)C(=O)O)CC[C@H]5O)O4)O3)CC[C@H]2O[C@@H]1[C@@H](O)C[C@H](C)[C@H]1O[C@@]2(CCCCO2)CC[C@H]1C [okadaic acid]
- increase of caspase-3 activity (caspase-3 [3]): 10 fold
- content of chromatin fragments (VSMC-E1A; 6 hr, serum-supplied medium, 0.25 μM staurosporine, 1 μM okadaic acid): 28.3±4.2%
